Experimental data: patent US20230414567A1, “METHODS OF TREATING CONDITIONS RELATED TO THE S1P1 RECEPTOR” (Arena Pharmaceuticals, Inc., priority 2020, published 2023)

Assays:
[1] = tested on: patients with moderate to severe atopic dermatitis; assay: Phase 2 randomized, double-blind, placebo-controlled study: efficacy (EASI, vIGA, pruritus NRS, patient-reported outcomes); assay type: in vivo, human; conditions: for reduction in EASI from baseline to week 12: 12 weeks (n=47); for delta versus placebo in vIGA 0 or 1 response at week 12: p<0.05
Procedure: A Phase 2, multicenter, randomized, double-blind, placebo-controlled study was conducted to assess the safety and efficacy of etrasimod in patients with moderate to severe atopic dermatitis. The primary endpoint measured was percent change in Eczema Area and Severity Index (EAST) from baseline to week 12, followed by a 4-week follow-up observation period. Secondary endpoints include the proportion of participants achieving EASI-75, proportion of participants with a validated Investigator Global Assessment (vIGA) 0 to 1, and percent change in peak pruritis. The trial enrolled approximately 140 patients and was conducted in study sites across the United States, Canada and Australia. An open-label extension of the trial is ongoing. The study included multiple periods: (i) up to a 4-week screening period (to determine subject eligibility); (ii) a 12-week double-blind treatment period with a 4-week safety follow-up period; and (iii) a 52-week open-label extension period followed by a 4-week safety follow-up period. Subjects with chronic AD for at least one year (as defined by Hanifin and Rajka criteria (Hanifin 1980)) despite optimized skin care (e.g., use of emollients, avoidance of irritants) whose disease is not adequately controlled with topical therapies, or for whom those therapies are not advisable, were equally randomized (1:1:1 ratio) to receive etrasimod (1 or 2 mg) or placebo. Etrasimod 1 or 2 mg tablets or matching placebo tablets were taken orally once daily during the double-blind treatment period. Etrasimod 2 mg tablets are taken orally once daily during the open-label extension period. There is no reference therapy (no placebo) during the open-label extension period. Inclusion Criteria: Subjects must meet ALL of the following inclusion criteria to be eligible for enrollment into the study. • 1. Men or women between ≥18 and ≤70 years of age at the time of informed consent. • 2. Chronic AD, defined by Hanifin and Rajka criteria (Hanifin 1980), that has been present for at least one year prior to the screening visit. • 3. Eczema Area and Severity Index (EAST)≥12 at the screening visit and ≥16 at the baseline visit. • 4. vIGA score≥3 (on the 0 to 4 vIGA scale, in which 3=moderate and 4=severe) involvement at the screening and baseline visits. • 5. Body surface area (BSA)≥10% of AD involvement at the screening and baseline visits. • 6. Recent history (within 6 months prior to the screening visit) of inadequate response to treatment with topical medications, or when topical treatments are otherwise medically inadvisable (e.g., because of important side effects or safety risks), which can be documented by medical records or by the history provided to the investigator by the subject despite optimized skin care (.e., avoidance of irritants, use of emollients). • 7. Willing to apply a dose of topical emollient/moisturizer at least once daily for ≥1 week prior to the baseline visit and willing to continue daily application over the course of the study without change (i.e., type, frequency, application). • 8. Willing and able to comply with all clinic visits and study-related procedures and understand and complete study-related questionnaires. • 9. Provide signed informed consent prior to conducting any procedures. Efficacy was assessed by changes in AD severity using EASI, vIGA, SCORing Atopic Dermatitis (SCORAD), and BSA. Symptoms of itch were assessed using the pruritus numeric rating scale (NRS). Patient-reported outcomes will also be assessed using the Dermatology Life Quality Index (DLQI), Patient Oriented Eczema Measure (POEM), and Patient Global Assessment (PGA).

[2] = tested on: patients with moderate to severe atopic dermatitis; assay: Phase 2 atopic dermatitis study: adverse events and tolerability; assay type: in vivo, human
heart rate = assay: Phase 2 atopic dermatitis study: heart rate effects after first dose; assay type: in vivo, human; conditions: for placebo corrected maximal mean heart rate decrease from baseline: 2 hours after first dose
Text: (§1) The study included multiple periods: (i) up to a 4-week screening period (to determine subject eligibility); (ii) a 12-week double-blind treatment period with a 4-week safety follow-up period; and (iii) a 52-week open-label extension period followed by a 4-week safety follow-up period. Subjects with chronic AD for at least one year (as defined by Hanifin and Rajka criteria (Hanifin 1980)) despite optimized skin care (e.g., use of emollients, avoidance of irritants) whose disease is not adequately controlled with topical therapies, or for whom those therapies are not advisable, were equally randomized (1:1:1 ratio) to receive etrasimod (1 or 2 mg) or placebo. Etrasimod 1 or 2 mg tablets or matching placebo tablets were taken orally once daily during the double-blind treatment period. Etrasimod 2 mg tablets are taken orally once daily during the open-label extension period. There is no reference therapy (no placebo) during the open-label extension period.
There was a decrease of 1.5 bpm in the 1 mg group and a decrease of 6.7 bpm in the 2 mg group. […] After the first dose, the heart rate differences across the 3 groups came together by week 1 and were similar from weeks 2-12. One participant in the 2 mg etrasimod group had transient 2nd degree AVB Type 1 which was self-limited, and asymptomatic. The participant went on to further dosing without any cardiac changes or symptoms.

lymphocyte count = assay: Phase 2 atopic dermatitis study: absolute/peripheral lymphocyte count; assay type: in vivo, human
Text: as §1
During the double-blind treatment period, etrasimod plasma concentrations and a complete blood count (CBC) including lymphocyte count were assessed on day 1 and before dosing at subsequent study visits. Study visits occurred at baseline, week 1, week 2, week 4, week 6, week 8, week 12, at the end of treatment, and at the week 16 follow-up visit. The absolute lymphocyte count (ALC) was included as part of the assessment.

UC patients = conditions: 2 mg QD for 12 weeks; cited from earlier work
healthy adult subjects = conditions: single doses up to 5 mg, repeated doses up to 4 mg QD; cited from earlier work

Which “patients achieving EASI-75” value ([1]; 1 mg once daily, week 12) does the source give for `O=C(O)C[C@H]1CCc2c1[nH]c1ccc(OCc3ccc(C4CCCC4)c(C(F)(F)F)c3)cc21` [etrasimod, (R)-2-(7-(4-cyclopentyl-3-(trifluoromethyl)benzyloxy)-1,2,3,4-tetrahydrocyclopenta[b]indol-3-yl)acetic acid] here?
Its value is 27.7%.

And the “patients achieving vIGA of 0 or 1 and a reduction from baseline of >=2 points at week 12” value ([1]; 1 mg once daily, week 12)?
Its value is 14.9%.

And the “reduction in EASI from baseline to week 12” value ([1]; 1 mg orally once daily)?
Its value is 58.7%.

What about the “proportion of patients with decrease in pruritus >=4 points at week 12” value ([1]; 1 mg, week 12, p=0.61 vs placebo) of the same molecule?
Its value is 32.5%.

What about the “improvement in EASI from baseline to week 4” value ([1]; 2 mg dose group, week 4) of the same molecule?
Its value is “statistically significant improvement”.

What about the “improvement in pruritis at week 4” value ([1]; 2 mg dose group, week 4) of the same molecule?
Its value is “statistically significant improvement”.

And the “proportion of patients who achieved EASI-75 at week 4” value ([1]; 2 mg dose group, week 4)?
Its value is “statistically significant improvement”.

And the “delta versus placebo in vIGA 0 or 1 response at week 12” value ([1]; 2 mg group vs placebo)?
The value was 16.8%.

What about the “percent change in EASI over time versus placebo” value ([1]; 2 mg group without interruptions, weeks 4 to 12) of the same molecule?
Its value is “significant at 4 weeks”.

What about the “patients achieving EASI-75 at week 12” value ([1]; 2 mg group without study interruptions) of the same molecule?
Its value is 42.1%.

And the “patients achieving vIGA of 0 or 1 and reduction from baseline >=2 points at week 12” value ([1]; 2 mg group without study interruptions (38 participants))?
Its value is 36.8%.

What about the “delta versus placebo in vIGA 0 or 1 response at week 12” value ([1]; 2 mg group without study interruptions vs placebo) of the same molecule?
The value was 23.8%.

What about the “patients achieving EASI-75” value ([1]; 2 mg once daily, week 12) of the same molecule?
The value was 38.3%.

And the “patients achieving vIGA of 0 or 1 and a reduction from baseline of >=2 points at week 12” value ([1]; 2 mg once daily, week 12)?
The value was 29.8%.

And the “reduction in EASI from baseline to week 12” value ([1]; 2 mg orally once daily)?
Its value is 57.2%.

What about the “treatment response after restart of treatment” value ([1]; 2 mg patients with dose interruption, after restart) of the same molecule?
The value was “recaptured”.

And the “EASI change from baseline in patients who ceased then reinitiated treatment” value ([1]; 2 mg patients with dose interruption, to week 12)?
The value was “improved rapidly after resumption”.

And the “patient-reported and clinician-assessed outcomes versus placebo” value ([1]; 2 mg, over 12 weeks)?
Its value is “improved patient-reported outcomes and clinician-assessed outcomes versus placebo”.

What about the “proportions of patients achieving vIGA score of 0 or 1, DLQI and POEM versus placebo” value ([1]; 2 mg, week 12) of the same molecule?
The value was “significantly greater proportions”.

And the “proportion of patients with decrease in pruritus >=4 points at week 12” value ([1]; 2 mg, week 12, p=0.15 vs placebo)?
Its value is 42.1%.

What about the “pruritis NRC changes over time versus placebo” value ([1]; etrasimod group without interruptions) of the same molecule?
Its value is “statistically significant from weeks 2-8”.

And the tolerability ([2]; 1 mg and 2 mg, 12-week double-blind period)?
Its tolerability is “well tolerated”.

What about the cases of dyspnea ([2]; 2 mg treatment group) of the same molecule?
Its cases of dyspnea is “one case”.

And the “adverse events related to heart rate” value ([2]; double-blind treatment period)?
Its value is “no adverse events related to heart rate”.

What about the “cases of macular edema” value ([2]; double-blind treatment period) of the same molecule?
The value was “no cases”.

What about the “conjunctivitis, acne, venous thromboembolic events, opportunistic or serious infections” value ([2]; double-blind treatment period) of the same molecule?
The value was “no reports”.

And the “blood pressure changes or symptoms associated with heart rate changes” value (heart rate; 1 mg and 2 mg groups, after first dose)?
Its value is “not associated with any blood pressure changes or symptoms”.

What about the “placebo corrected maximal mean heart rate decrease from baseline” value (heart rate; 1 mg group) of the same molecule?
The value was 1.5 bpm.

And the “placebo corrected maximal mean heart rate decrease from baseline” value (heart rate; 2 mg group)?
The value was 6.7 bpm.

And the “participants with transient 2nd degree AVB Type 1” value (heart rate; 2 mg group, self-limited, asymptomatic)?
The value was “One”.

And the “patients with ALC measurement of Grade 3 (between 0.2x10e9 and 0.5x10e9 cells/L)” value (lymphocyte count; 2 mg group, between weeks 4 and 8)?
The value was “nine”.

What about the “maximal reduction in the peripheral lymphocyte count” value (lymphocyte count; 2 mg group, week 2) of the same molecule?
Its value is 43.6%.

And the “lymphocyte count after treatment withdrawal” value (lymphocyte count; 2 mg patients with dose interruption, between weeks 4 and 8)?
Its value is “rapid rebound in lymphocyte count”.

What about the “endoscopic and symptomatic improvements versus placebo” value (UC patients) of the same molecule?
Its value is “clinically meaningful and statistically significant endoscopic and symptomatic improvements”.

And the “safety and tolerability in clinical trials” value (healthy adult subjects)?
The value was “safe and well-tolerated”.
